For assay [1], the target named is GDP-bound NRAS wild-type protein (Homo sapiens, UniProt P01111). As to the kind of experiment: Binding to NRAS by surface plasmon resonance (SPR), Single Cycle Kinetics. The conditions noted are these: SPR, GDP-bound NRAS wild-type protein vs GDP-bound KRAS wild-type protein. A general note: SPR reads the build-up and loss of mass on a sensor chip optically.
Assay [2] addresses GDP-bound HRAS wild-type protein (Homo sapiens, UniProt P01112). As to the kind of experiment: Binding to HRAS by surface plasmon resonance (SPR), Single Cycle Kinetics. The conditions noted are these: SPR, GDP-bound HRAS wild-type protein vs GDP-bound KRAS wild-type protein.
The subject of assay [3] is human lung cancer strain NCI-H441.
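Throughout, for IC50: cell proliferation inhibition after four days measured by CellTiter-Glo.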

Chain of GDP-bound NRAS wild-type protein (P01111 whole entry): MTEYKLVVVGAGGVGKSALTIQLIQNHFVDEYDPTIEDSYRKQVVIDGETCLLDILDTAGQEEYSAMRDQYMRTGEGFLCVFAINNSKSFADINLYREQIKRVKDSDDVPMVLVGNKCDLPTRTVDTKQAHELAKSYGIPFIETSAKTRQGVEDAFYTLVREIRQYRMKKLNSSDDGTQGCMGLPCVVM
Chain of GDP-bound HRAS wild-type protein (P01112 whole entry): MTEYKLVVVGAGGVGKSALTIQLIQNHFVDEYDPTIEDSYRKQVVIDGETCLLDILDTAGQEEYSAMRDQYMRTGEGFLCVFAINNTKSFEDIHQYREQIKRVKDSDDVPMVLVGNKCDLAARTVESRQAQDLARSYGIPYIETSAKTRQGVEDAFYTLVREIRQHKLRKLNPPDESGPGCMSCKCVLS

`CC[C@H](C)[C@@H]1NC(=O)[C@H](CC(C)C)N(C)C(=O)C[C@@H](C(=O)N2CCOCC2)N(C)C(=O)[C@H](C2CCCC2)N(C)C(=O)C2(CCCC2)NC(=O)[C@@H]2CCCN2C(=O)[C@H](CCc2ccc(C(F)(F)F)c(Cl)c2)NC(=O)CN(C)C(=O)[C@H](Cc2ccc(F)cc2)N2C/C=C\CC[C@@H](C2=O)N(C)C(=O)CN(C)C1=O` [PP0607]: the “NRAS/KRAS (ratio of KD value with respect to NRAS to KD value with respect to KRAS)” value in assay [1] was “C (A compound having a KD ratio of 0.1 or more and less than 3 is denoted as C)”. Besides, the “HRAS/KRAS (ratio of KD value with respect to HRAS to KD value with respect to KRAS)” value in assay [2] is “B (a compound having 3 or more and less than 10 is denoted as B)”. Besides, the 50% inhibitory concentration (IC50) in assay [3] stood at 0.119 µM.
`CC[C@H](C)[C@@H]1NC(=O)[C@H](CC(C)C)N(C)C(=O)C[C@@H](C(=O)N2CCOCC2)N(C)C(=O)[C@H](C2CCCC2)N(C)C(=O)C2(CCCC2)NC(=O)[C@@H]2CCCN2C(=O)[C@H](CCc2ccc(C(F)(F)F)c(Cl)c2)NC(=O)CN(C)C(=O)[C@H](Cc2ccc(OC)cc2)N2C/C=C\CC[C@@H](C2=O)N(C)C(=O)CN(C)C1=O` [PP0609]: in assay [1], the “NRAS/KRAS (ratio of KD value with respect to NRAS to KD value with respect to KRAS)” value was “B (a compound having 3 or more and less than 10 is denoted as B)”. Moreover, in assay [2], the “HRAS/KRAS (ratio of KD value with respect to HRAS to KD value with respect to KRAS)” value was “B (a compound having 3 or more and less than 10 is denoted as B)”. In addition, inhibition in assay [3] was half-maximal at 0.468 µM (IC50).
As for `CC[C@H](C)[C@@H]1NC(=O)[C@H](CC(C)C)N(C)C(=O)C[C@@H](C(=O)N2CCOCC2)N(C)C(=O)[C@H](C2CCCC2)N(C)C(=O)C2(CCCC2)NC(=O)[C@@H]2CCCN2C(=O)[C@H](CCc2ccc(C(F)(F)F)c(Cl)c2)NC(=O)CN(C)C(=O)[C@H](Cc2ccccc2)N2CCCCC[C@@H](C2=O)N(C)C(=O)CN(C)C1=O` [PP0611], in assay [1], the “NRAS/KRAS (ratio of KD value with respect to NRAS to KD value with respect to KRAS)” value is “B (a compound having 3 or more and less than 10 is denoted as B)”. In addition, the “HRAS/KRAS (ratio of KD value with respect to HRAS to KD value with respect to KRAS)” value in assay [2] was “B (a compound having 3 or more and less than 10 is denoted as B)”. In assay [3], this compound returned an IC50 of 0.0889 µM.
For `CC[C@H](C)[C@@H]1NC(=O)[C@H](CC(C)C)N(C)C(=O)C[C@@H](C(=O)N(C)C)N(C)C(=O)[C@H](C2CCCC2)N(C)C(=O)C2(CCCC2)NC(=O)[C@@H]2CCCN2C(=O)[C@H](CCc2ccc(C(F)(F)F)c(Cl)c2)NC(=O)CN(C)C(=O)[C@H](Cc2ccc(C)cc2)N2CC/C=C(/C)C[C@@H](C2=O)N(C)C(=O)CN(C)C1=O` [PP0616], the “NRAS/KRAS (ratio of KD value with respect to NRAS to KD value with respect to KRAS)” value in assay [1] is “B (a compound having 3 or more and less than 10 is denoted as B)”. The “HRAS/KRAS (ratio of KD value with respect to HRAS to KD value with respect to KRAS)” value in assay [2] is “B (a compound having 3 or more and less than 10 is denoted as B)”. In assay [3], this compound registered an IC50 of 0.0738 µM.
As for `CC[C@H](C)[C@@H]1NC(=O)[C@H](CC(C)C)N(C)C(=O)C[C@@H](C(=O)N(C)C)N(C)C(=O)[C@@H](C2CCCC2)N(C)C(=O)C2(CCCC2)NC(=O)[C@@H]2CCCN2C(=O)[C@H](CCc2ccc(C(F)(F)F)c(Cl)c2)NC(=O)CN(C)C(=O)[C@H](Cc2ccc(C(F)(F)F)cc2)N2CC/C=C(/C)C[C@@H](C2=O)N(C)C(=O)CN(C)C1=O` [PP0617], the “NRAS/KRAS (ratio of KD value with respect to NRAS to KD value with respect to KRAS)” value in assay [1] was “B (a compound having 3 or more and less than 10 is denoted as B)”. Also, the “HRAS/KRAS (ratio of KD value with respect to HRAS to KD value with respect to KRAS)” value in assay [2] is “B (a compound having 3 or more and less than 10 is denoted as B)”. The half-inhibitory concentration (IC50) in assay [3] was 0.159 µM.
Regarding `CC[C@H](C)[C@@H]1NC(=O)[C@@H](CC(C)C)N(C)C(=O)C[C@@H](C(=O)N(C)C)N(C)C(=O)[C@@H](C2CCCC2)N(C)C(=O)C2(CCCC2)NC(=O)[C@@H]2CCCN2C(=O)[C@H](CCc2ccc(C(F)(F)F)c(Cl)c2)NC(=O)CN(C)C(=O)[C@@H](Cc2ccc(C(F)(F)F)cc2)N2CC/C=C\CCN(CC2=O)C(=O)CN(C)C1=O` [PP0619], the “NRAS/KRAS (ratio of KD value with respect to NRAS to KD value with respect to KRAS)” value in assay [1] is “C (A compound having a KD ratio of 0.1 or more and less than 3 is denoted as C)”. In addition, the “HRAS/KRAS (ratio of KD value with respect to HRAS to KD value with respect to KRAS)” value in assay [2] is “C (A compound having a KD ratio of 0.1 or more and less than 3 is denoted as C)”. In addition, the concentration for half-maximal inhibition (IC50) in assay [3] was 0.0707 µM.
As to `CC[C@H](C)[C@@H]1NC(=O)[C@H](CC(C)C)N(C)C(=O)C[C@@H](C(=O)N(C)C)N(C)C(=O)[C@H](C2CCCC2)N(C)C(=O)C2(CCCC2)NC(=O)[C@@H]2CCCN2C(=O)[C@H](CCc2ccc(C(F)(F)F)c(Cl)c2)NC(=O)CN(C)C(=O)[C@H](Cc2ccc(C)cc2)N2CC=C(C)C[C@@H](C2=O)N(C)C(=O)CN(C)C1=O` [PP0620], the “NRAS/KRAS (ratio of KD value with respect to NRAS to KD value with respect to KRAS)” value in assay [1] was “C (A compound having a KD ratio of 0.1 or more and less than 3 is denoted as C)”. For the same compound, in assay [2], the “HRAS/KRAS (ratio of KD value with respect to HRAS to KD value with respect to KRAS)” value was “C (A compound having a KD ratio of 0.1 or more and less than 3 is denoted as C)”. Besides, in assay [3], the IC50 came to 0.0384 µM.
As to `CC[C@H](C)[C@@H]1NC(=O)[C@@H](CC(C)C)N(C)C(=O)C[C@@H](C(=O)N(C)C)N(C)C(=O)[C@H](C2CCCC2)N(C)C(=O)C2(CCCC2)NC(=O)[C@@H]2CCCN2C(=O)[C@@H](CCc2ccc(C(F)(F)F)c(Cl)c2)NC(=O)CN(C)C(=O)[C@@H](Cc2ccc(C(F)(F)F)cc2)N2C/C=C\COC[C@@H](C2=O)N(C)C(=O)CN(C)C1=O` [PP0626], in assay [1], the “NRAS/KRAS (ratio of KD value with respect to NRAS to KD value with respect to KRAS)” value was “C (A compound having a KD ratio of 0.1 or more and less than 3 is denoted as C)”. In addition, the “HRAS/KRAS (ratio of KD value with respect to HRAS to KD value with respect to KRAS)” value in assay [2] was “C (A compound having a KD ratio of 0.1 or more and less than 3 is denoted as C)”. This compound had a half-inhibitory concentration (IC50) in assay [3] of 0.158 µM.
Take `CCO[C@@H]1C[C@H]2C(=O)NC3(CCC3)C(=O)N(C)[C@@H](C3CCCC3)C(=O)N(CCC3CCCC3)[C@H](C(=O)N3CCOCC3)CC(=O)N(C)[C@@H](CC(C)C)C(=O)N[C@@H]([C@@H](C)CC)C(=O)N(C)CC(=O)N(C)[C@H]3CCCCCN(C3=O)[C@@H](Cc3ccc(C(F)(F)F)cc3)C(=O)N(C)CC(=O)N[C@@H](CCc3cc(F)c(C(F)(F)F)c(F)c3)C(=O)N2C1` [PP0641]: in assay [1], the “NRAS/KRAS (ratio of KD value with respect to NRAS to KD value with respect to KRAS)” value was “A (a compound having 10 or more and less than 20 is denoted as A)”. In addition, in assay [2], the “HRAS/KRAS (ratio of KD value with respect to HRAS to KD value with respect to KRAS)” value is “A (a compound having 10 or more and less than 20 is denoted as A)”. Also, the IC50 in assay [3] was over 1.3 µM.
Regarding `CCO[C@@H]1C[C@H]2C(=O)NC3(CCC3)C(=O)N(C)[C@@H](C3CCCC3)C(=O)N(C)[C@H](C(=O)N(C)C)CC(=O)N(C)[C@@H](CC(C)(C)C)C(=O)N[C@@H]([C@@H](C)CC)C(=O)N(C)CC(=O)N(C)[C@H]3CCCCCN(C3=O)[C@@H](Cc3ccc(C(F)(F)F)cc3)C(=O)N(C)CC(=O)N[C@@H](CCc3cc(F)c(C(F)(F)F)c(F)c3)C(=O)N2C1` [PP0669], the “NRAS/KRAS (ratio of KD value with respect to NRAS to KD value with respect to KRAS)” value in assay [1] was “B (a compound having 3 or more and less than 10 is denoted as B)”. Moreover, the “HRAS/KRAS (ratio of KD value with respect to HRAS to KD value with respect to KRAS)” value in assay [2] is “B (a compound having 3 or more and less than 10 is denoted as B)”. Further, the IC50 in assay [3] was 0.0203 µM.
Regarding `CCO[C@@H]1C[C@H]2C(=O)NC3(CCC3)C(=O)N(C)[C@@H](C3CCCC3)C(=O)N(C)[C@H](C(=O)N(C)C)CC(=O)N(C)[C@@H](CC3CCCC3)C(=O)N[C@@H]([C@@H](C)CC)C(=O)N(C)CC(=O)N(C)[C@H]3CCCCCN(C3=O)[C@@H](Cc3ccc(C(F)(F)F)cc3)C(=O)N(C)CC(=O)N[C@@H](CCc3cc(F)c(C(F)(F)F)c(F)c3)C(=O)N2C1` [PP0670], in assay [1], the “NRAS/KRAS (ratio of KD value with respect to NRAS to KD value with respect to KRAS)” value was “B (a compound having 3 or more and less than 10 is denoted as B)”. Also, the “HRAS/KRAS (ratio of KD value with respect to HRAS to KD value with respect to KRAS)” value in assay [2] was “B (a compound having 3 or more and less than 10 is denoted as B)”. This compound also registered an IC50 in assay [3] of 0.0113 µM.
In the case of `CCO[C@@H]1C[C@H]2C(=O)NC3(CCC3)C(=O)N(C)[C@@H](C3CCCC3)C(=O)N(C)[C@H](C(=O)N(C)C)CC(=O)N(C)[C@@H](Cc3ccccc3)C(=O)N[C@@H]([C@@H](C)CC)C(=O)N(C)CC(=O)N(C)[C@H]3CCCCCN(C3=O)[C@@H](Cc3ccc(C(F)(F)F)cc3)C(=O)N(C)CC(=O)N[C@@H](CCc3cc(F)c(C(F)(F)F)c(F)c3)C(=O)N2C1` [PP0672], the “NRAS/KRAS (ratio of KD value with respect to NRAS to KD value with respect to KRAS)” value in assay [1] is “B (a compound having 3 or more and less than 10 is denoted as B)”. In assay [2], the “HRAS/KRAS (ratio of KD value with respect to HRAS to KD value with respect to KRAS)” value is “B (a compound having 3 or more and less than 10 is denoted as B)”. For the same compound, in assay [3], the midpoint of inhibition, the IC50, lay at 0.0197 µM.
With `CCO[C@@H]1C[C@H]2C(=O)NC3(CCC3)C(=O)N(C)[C@@H](C3CCCC3)C(=O)N(C)[C@H](C(=O)N3CCOCC3)CC(=O)N(C)[C@@H](Cc3ccccc3)C(=O)N[C@@H]([C@@H](C)CC)C(=O)N(C)CC(=O)N(C)[C@H]3CCCCCN(C3=O)[C@@H](Cc3ccc(C(F)(F)F)cc3)C(=O)N(C)CC(=O)N[C@@H](CCc3cc(F)c(C(F)(F)F)c(F)c3)C(=O)N2C1` [PP0687], the “NRAS/KRAS (ratio of KD value with respect to NRAS to KD value with respect to KRAS)” value in assay [1] is “B (a compound having 3 or more and less than 10 is denoted as B)”. In addition, the “HRAS/KRAS (ratio of KD value with respect to HRAS to KD value with respect to KRAS)” value in assay [2] is “B (a compound having 3 or more and less than 10 is denoted as B)”. In assay [3], this compound yielded a half-inhibitory concentration (IC50) of 0.0441 µM.
As for `CCO[C@@H]1C[C@H]2C(=O)NC3(CCC3)C(=O)N(C)[C@@H](C3CCCC3)C(=O)N(C)[C@H](C(=O)N3CCOCC3)CC(=O)N(C)[C@@H](Cc3cccnc3)C(=O)N[C@@H]([C@@H](C)CC)C(=O)N(C)CC(=O)N(C)[C@H]3CCCCN(C3=O)[C@@H](Cc3ccc(C(F)(F)F)cc3)C(=O)N(C)CC(=O)N[C@@H](CCc3cc(F)c(C(F)(F)F)c(F)c3)C(=O)N2C1` [PP0718], the “NRAS/KRAS (ratio of KD value with respect to NRAS to KD value with respect to KRAS)” value in assay [1] is “C (A compound having a KD ratio of 0.1 or more and less than 3 is denoted as C)”. Moreover, the “HRAS/KRAS (ratio of KD value with respect to HRAS to KD value with respect to KRAS)” value in assay [2] is “B (a compound having 3 or more and less than 10 is denoted as B)”. Moreover, in assay [3], the IC50 came out at 0.0423 µM.

The term IC50 denotes the point on the concentration scale where inhibition reaches its midpoint.
